Results reported in US12485170B2, “Lipid composition targeting antigen-presenting cells and use thereof” (Beijing Youcare Kechuang Pharmaceutical Technology Co., Ltd., priority 2024, dated 2025).
“Also recorded” adds a separate entry of the source. Read-outs that look alike come from different tables or passages of the source.

Assay: Solubility of anionic lipids in ethanol during preparation
Method: General method 1: The components of the lipid composition (including permanently anionic lipids, permanently cationic lipids, and/or neutral lipids, or combinations thereof) were dissolved in ethanol according to the specified molar ratio to prepare an ethanol lipid complex solution (with a total lipid concentration of 100 to 600 mM). The ethanol lipid complex solution was rapidly added to RNase-free water using the ethanol injection method. After stirring for 30 minutes, the resulting lipid composition solution was filtered through a polycarbonate membrane with a pore size of 100 nm to 400 nm.
General method 2: Permanently anionic lipids or compounds were dissolved in RNase-free water to obtain RNase-free water containing permanently anionic lipids. Permanently cationic lipids and neutral lipids were dissolved in ethanol according to the specified molar ratio to prepare an ethanol lipid complex solution (with a total lipid concentration of 100 to 600 mM). The ethanol lipid complex solution was rapidly added to the RNase-free water containing permanently anionic lipids using the ethanol injection method. After stirring for 30 minutes, the resulting lipid composition solution was filtered through a polycarbonate membrane with a pore size of 100 nm to 400 nm.
The molar ratio of permanently anionic lipids, permanently cationic lipid DOTMA, and neutral lipid DOPE in the different complexes was controlled at 1:2:1, and the particle size and PDI were measured.

SMILES	Notes: solubility of the anionic lipid in ethanol (phosphate sodium salt)	Notes: solubility of the anionic lipid in ethanol	Notes: solubility of the anionic lipid in ethanol (listed as farnesyl pyrophosphate)	Notes: solubility of the anionic lipid in ethanol (listed as pA (2′-OMe) mpG)
CCCCCCCC/C=C\CCCCCCCC(=O)OC[C@H](COP(=O)([O-])OCCNC(C)=O)OC(=O)CCCCCCC/C=C\CCCCCCCC.[Na+] [ADOPE, 2-acetamidoethyl ((R)-2,3-bis(oleoyloxy)propyl) phosphate sodium salt]	good solubility in ethanol; also recorded: Soluble in ethanol,			
CCCCCCCC/C=C\CCCCCCCC(=O)O [Oleic acid]		Soluble in ethanol,		
CC(C)=CCC/C(C)=C/CC/C(C)=C/CO[P@@](=O)(O)OP(=O)(O)O (stereo in doubt) [Farnesyl pyrophosphate]		Insoluble in ethanol,	lower solubility in ethanol	
COC1C(OP(=O)(O)OC[C@H]2O[C@@H](n3cnc4c(=O)[nH]c(N)nc43)C(O)C2O)[C@@H](COP(=O)(O)O)O[C@H]1n1cnc2c(N)ncnc21 (stereo partly drawn) [pA(2′-OMe)mpG, ((2R,3S,4S,5R)-3-(((((2R,3R,4S,5R)-5-(2-amino-6-oxo-1,6-dihydro-9H-purin-9-yl)-3,4-dihydroxytetrahydrofuran-2-yl)methoxy) (hydroxy)phosphoryl)oxy)-5-(6-amino-9H-purin-9-yl)-4-methoxytetrahydrofuran-2-yl) methyl dihydrogen phosphate]		Insoluble in ethanol,		lower solubility in ethanol
